Results taken from US10738080B2, “Inhibitors of beta integrin-G protein alpha subunit binding interactions” (priority 2010, dated 2020).
“Also recorded” adds a separate entry of the source. Where two headings read alike, the source gives them in different places. No end group written: not given here. *: point of attachment. Myristoyl = CCCCCCCCCCCCCC(=O)*

What was measured:
human platelets = type: cell-based; settings: for platelet spreading on fibrinogen: human platelets, immobilized fibrinogen; for integrin outside-in signaling (early phase): human platelets on fibrinogen, 250 μM peptide
Procedure: The clots were photographed at various time points. […] Statistical significance was determined using t-test.
Studies using human platelets were approved by institutional review board of University of Illinois at Chicago.
Coverslides were pre-coated with 100 μg/ml fibrinogen and blocked with 5% BSA in PBS. 300 μl αIIbβ3-expressing CHO cells (expressing WT or mutant integrins; 1×10^5/ml) or platelets (1×10^7/ml) suspended in Tyrode's buffer were added to coverslides and incubated at 37° C. for various lengths of time. Cells were fixed with 4% paraformaldehyde (PFA) for 10 minutes and permeabilized with 0.1% Triton X-100 in PBS for 2 minutes. After blocking with 5% BSA for 10 minutes, coverslides were incubated with 0.2 μg/ml mAb 15, or Alexa Fluor-546 conjugated phalloidin. For mouse platelets re-express wild type β3 or the AAA mutant of β3, β3 was immuno-stained with the anti-β3 monoclonal antibody MAb 15 and Alexa Fluor-546 conjugated phalloidin. The slides were scanned with a Zeiss LSM5 10 META confocal microscope as previously described^11

[1] = tested on: human platelet-rich plasma; settings: 250 μM peptide
Procedure: Studies using human platelets were approved by the Institutional Review Board of University of Illinois at Chicago. […] Clot retraction was analyzed with the previously described method (S6, S7). Briefly, mouse platelets (6×10^8/ml) were resuspended in platelet-depleted human plasma, and 0.4 U/ml α-thrombin was added to initiate coagulation. The clots were photographed at various time points. Sizes of retracted clots on photographs were quantified using NIH Image J software. Statistical significance was determined using t-test.
Clot Retraction Assays were carried out as follows: Similar as described before(2, 3), freshly prepared human whole blood was citrated with 1/10 volume of 3.8% sodium citrate. After centrifugation at 1300 rpm for 22 min with break, platelet rich plasma (PRP) was collected. Pre-incubated of PRP with 0.05% DMSO (vehicle), 250 μM mP5 peptide, 250 μM mP13 peptide, or their corresponding scrambled control peptides mP5Scr or mP13Scr for 5 minutes at room temperature. After that, 0.5 U/ml thrombin was added into PRP and mixed gently. The clots were formed and allowed to retract at 37° C. incubator with CO2 and were photographed at various times. The two-dimensional sizes of retracted clots on photographs were quantified using Image J software and were expressed as clot size. Statistical significance was determined using a t test (n=3).

Substance | thrombin-promoted platelet spreading (human platelets; 0.01 U/ml thrombin) | platelet spreading on fibrinogen (human platelets) | clot retraction [1] | integrin outside-in signaling (early phase) (human platelets) | platelet spreading on fibrinogen (human platelets; listed as Myr-P5)
Myristoyl-LLARRPTKGIHEY [mSRI] | abolished | inhibited | accelerated | – | –
Myristoyl-KFEEERA [mP7] | – | abolished | – | – | –
Myr-EEERA [mP5] | – | abolished; also recorded: inhibited | accelerated | selectively inhibited | inhibited
Myristoyl-KFEEERARAKWDT [mP13] | – | abolished | inhibited | inhibited | –
